From patent publication US9521846B2, “Template-fixed peptidomimetics with antimicrobial activity” (priority 2006, dated 2016)
In brackets after ≈: the same amount, converted by molar mass. Non-standard residues stand in square brackets, D forms with d. Residues, ends and D or L forms follow the SMILES beside them. Chg = N[C@H](C(=O)O)C1CCCCC1; Nle = CCCC[C@H](N)C(=O)O; Dab = NCC[C@H](N)C(=O)O; Nva = CCC[C@H](N)C(=O)O; Aib = CC(C)(N)C(=O)O

What was measured:
[1] = system: P. aeruginosa ATCC 27853; format: cell-based, Pseudomonas aeruginosa; details: ATCC 27853
Procedure: (§1) The selective antimicrobial activities of the peptides were determined in 96-well plates (Nunclon polystyrene) by the standard NCCLS broth microdilution method (see ref 1, below) with slight modifications. Innocula of the microorganisms were diluted into Mueller-Hinton (MH) broth+0.02% BSA and compared with a 0.5 Mcfarland standard to give appr. 10^6 colony forming units (CFU)/ml. Aliquots (50 μl) of inoculate were added to 50 μl of MH broth+0.02% BSA containing the peptide in serial two-fold dilutions. The following microorganisms were used to determine antibiotic selectivity of the peptides: Escherichia coli (ATCC 25922), Pseudomonas aeruginosa (P. aeruginosa ATCC 27853, P8191900, P1021903, P1021913, IMP 1 Livermore 3140).

[2] = system: P. aeruginosa
[3] = system: human red blood cells (hRBC); test: Hemolysis; format: cell-based; details: 100
Procedure: Hemolysis of red blood cells is often employed for assessment of toxicity of related compounds such as protegrin or tachyplesin. Values are given as %-lysis of red blood cells observed at a concentration of 100 μg/ml. Typical values determined for cationic peptides such as protegrin and tachyplesin range between 30-40% with average MIC-values of 1-5 μg/ml over a wide range of pathogens.
The peptides were tested for their hemolytic activity against human red blood cells (hRBC). Fresh hRBC were washed three times with phosphate buffered saline (PBS) by centrifugation for 10 min at 2000×g. Peptides at a concentration of 100 μM were incubated with 20% v/v hRBC for 1 hour at 37° C. The final erythrocyte concentration was approximately 0.9×10^9 cells per ml. A value of 0% and, respectively, 100% cell lysis was determined by incubation of the hRBC in the presence of PBS alone and, respectively, 0.1% Triton X-100 in H2O. The samples were centrifuged, the supernatant was 20-fold diluted in PBS buffer and the optical density (OD) of the sample at […] was measured. The 100% lysis value (OD540H20) gave an OD540 of approximately 1.3-1.8. Percent hemolysis was calculated as follows: (OD540peptide/OD540H20)×100%.

[4] = system: Pseudomonas aeruginosa P1021913; format: cell-based; details: P1021913
Procedure: as §1

[5] = system: Pseudomonas aeruginosa IMP 1 Livermore 3140; format: cell-based; details: IMP 1 Livermore 3140
Procedure: as §1

[6] = system: Pseudomonas aeruginosa P1021903; format: cell-based; details: P1021903
Procedure: as §1

[7] = system: Pseudomonas aeruginosa P8191900; format: cell-based; details: P8191900
Procedure: as §1

[8] = system: HELA cells (Acc57); test: Cytotoxicity assay, MTT reduction (LC 50, GI 50); format: cell-based
Procedure: The cytotoxicity of the peptides to HELA cells (Acc57) and COS-7 cells (CRL-1651) was determined using the MIT reduction assay [see ref. 2 and 3, below]. Briefly the method was as follows: HELA cells and COS-7 cells were seeded at 7.0×10^3 and, respectively, 4.5×10^3 cells per well and grown in 96-well […] plates for 24 hours at 37° C. at 5% CO2. At this point, time zero (Tz) was determined by MTT reduction (see below). The supernatant of the remaining wells was discarded, and fresh medium and the peptides in serial dilutions of 12.5, 25 and 50 μM were dispensed into the wells. Each peptide concentration was assayed in triplicate. Incubation of the cells was continued for 48 hours at 37° C. at 5% CO2. Wells were then washed once with phosphate buffered saline (PBS) and subsequently 100 μl MIT reagent (0.5 mg/ml in medium RPMI1640 and, respectively, DMEM) were added to the wells. This was incubated at 37° C. for 2 hours and subsequently the medium was aspirated and 100 μl isopropanol were added to each well. The absorbance at 595 nm of the solubilized product was measured (OD595peptide). For each concentration averages were calculated from triplicates. The percentage of growth was calculated as follows: (OD595peptide-OD595Tz-OD595Empty well)/(OD595Tz-OD595Empty well)×100% and was plotted for each peptide concentration.
The LC 50 values (Lethal Concentration, defined as the concentration that kills 50% of the cells) were determined for each peptide by using the trend line function of EXCEL (Microsoft Office 2000) for the concentrations (50, 25, 12.5 and 0 μM), the corresponding growth percentages and the value −50, (=TREND(C50:C0,%50:%0,−50)). The GI 50 (Growth Inhibition) concentrations were calculated for each peptide by using a trend line function for the concentrations (50, 25, 12.5 and 0 […]), the corresponding percentages and the value 50, (=TREND (C50:C0,%50:%0,50).

| SMILES | MIC P. aeruginosa ATCC 27853 [1] [µg/mL] | Average MIC [2] [µg/mL] | MIC P. aeruginosa P1021913 [4] [µg/mL] | MIC P. aeruginosa IMP1 Livermore 3140 [5] [µg/mL] | MIC P. aeruginosa P1021903 [6] [µg/mL] | MIC P. aeruginosa P8191900 [7] [µg/mL] | Hemolysis at 100 μg/ml [3] [%] | Cytotoxicity GI50 Hela cells [8] [µM] |
| --- | --- | --- | --- | --- | --- | --- | --- | --- |
| CC[C@H](C)[C@@H]1NC(=O)[C@H](Cc2c[nH]c3ccccc23)NC(=O)[C@H]([C@@H](C)O)NC(=O)[C@@H]2CCCN2C(=O)[C@H]2CCCN2C(=O)[C@H](CCN)NC(=O)[C@@H](C)NC(=O)[C@H](CCN)NC(=O)[C@H](CCN)NC(=O)[C@H](Cc2c[nH]c3ccccc23)NC(=O)[C@H](CCN)NC(=O)[C@H](CCN)NC(=O)[C@H](CCCCN)NC(=O)[C@H](CCN)NC1=O [Example 3] (cyclo(TWI[Dab]K[Dab][Dab]W[Dab][Dab][dA][Dab][dP]P)) | 0.09 (≈ 0.0569 µM) | 0.6 | 0.31 (≈ 0.196 µM) | 2.0 (≈ 1.27 µM) | 0.30 (≈ 0.19 µM) | 0.30 (≈ 0.19 µM) | 0.6 | 34 |
| CC[C@H](C)[C@@H]1NC(=O)[C@H](Cc2c[nH]c3ccccc23)NC(=O)[C@H]([C@@H](C)O)NC(=O)[C@@H]2CCCN2C(=O)[C@H]2CCCN2C(=O)[C@H](CCN)NC(=O)[C@@H](C(C)C)NC(=O)[C@H](CCN)NC(=O)[C@H](CCN)NC(=O)[C@H](Cc2c[nH]c3ccccc23)NC(=O)[C@H](CCN)NC(=O)[C@H](CCN)NC(=O)[C@H](CCCCN)NC(=O)[C@H](CCN)NC1=O [Example 4] (cyclo(TWI[Dab]K[Dab][Dab]W[Dab][Dab][dV][Dab][dP]P)) | 0.75 (≈ 0.466 µM) | >1 | 2.50 (≈ 1.55 µM) | >2.0 | 1.50 (≈ 0.932 µM) | 1.50 (≈ 0.932 µM) | 0.6 | 40 |
| CC[C@H](C)[C@@H]1NC(=O)[C@H](Cc2c[nH]c3ccccc23)NC(=O)[C@H]([C@@H](C)O)NC(=O)[C@@H]2CCCN2C(=O)[C@H]2CCCN2C(=O)[C@H](CCN)NC(=O)C(C)(C)NC(=O)[C@H](CCN)NC(=O)[C@H](CCN)NC(=O)[C@H](Cc2c[nH]c3ccccc23)NC(=O)[C@H](CCN)NC(=O)[C@H](CCN)NC(=O)[C@H](CCCCN)NC(=O)[C@H](CCN)NC1=O [Example 5] (cyclo(TWI[Dab]K[Dab][Dab]W[Dab][Dab][Aib][Dab][dP]P)) | 0.08 (≈ 0.0502 µM) | 0.31 | 0.21 (≈ 0.132 µM) | 0.75 (≈ 0.47 µM) | 0.21 (≈ 0.132 µM) | 0.30 (≈ 0.188 µM) | 0.6 | 50 |

Second part, led by results:

| MIC P. aeruginosa ATCC 27853 [1] [µg/mL] | Average MIC [2] [µg/mL] | MIC P. aeruginosa P1021913 [4] [µg/mL] | MIC P. aeruginosa IMP1 Livermore 3140 [5] [µg/mL] | MIC P. aeruginosa P1021903 [6] [µg/mL] | MIC P. aeruginosa P8191900 [7] [µg/mL] | SMILES | Hemolysis at 100 μg/ml [3] [%] | Cytotoxicity GI50 Hela cells [8] [µM] |
| --- | --- | --- | --- | --- | --- | --- | --- | --- |
| 0.13 (≈ 0.0801 µM) | >1 | 0.65 (≈ 0.4 µM) | >2 | 1.50 (≈ 0.924 µM) | 0.50 (≈ 0.308 µM) | CC[C@H](C)[C@@H]1NC(=O)[C@H](Cc2c[nH]c3ccccc23)NC(=O)[C@H]([C@@H](C)O)NC(=O)[C@@H]2CCCN2C(=O)[C@H]2CCCN2C(=O)[C@H](CCN)NC(=O)[C@H](CC(C)C)NC(=O)[C@H](CCN)NC(=O)[C@H](CCN)NC(=O)[C@H](Cc2c[nH]c3ccccc23)NC(=O)[C@H](CCN)NC(=O)[C@H](CCN)NC(=O)[C@H](CCCCN)NC(=O)[C@H](CCN)NC1=O [Example 7] (cyclo(TWI[Dab]K[Dab][Dab]W[Dab][Dab]L[Dab][dP]P)) | 0.8 | 13 |
| 0.05 (≈ 0.0308 µM) | 0.23 | 0.31 (≈ 0.191 µM) | 0.43 (≈ 0.265 µM) | 0.18 (≈ 0.111 µM) | 0.18 (≈ 0.111 µM) | CC[C@H](C)[C@@H]1NC(=O)[C@H](Cc2c[nH]c3ccccc23)NC(=O)[C@H]([C@@H](C)O)NC(=O)[C@@H]2CCCN2C(=O)[C@H]2CCCN2C(=O)[C@H](CCN)NC(=O)[C@H]([C@@H](C)CC)NC(=O)[C@H](CCN)NC(=O)[C@H](CCN)NC(=O)[C@H](Cc2c[nH]c3ccccc23)NC(=O)[C@H](CCN)NC(=O)[C@H](CCN)NC(=O)[C@H](CCCCN)NC(=O)[C@H](CCN)NC1=O [Example 8] (cyclo(TWI[Dab]K[Dab][Dab]W[Dab][Dab]I[Dab][dP]P)) | 0 | 50 |
| 0.21 (≈ 0.129 µM) | >1 | 0.75 (≈ 0.462 µM) | >2 | 1.50 (≈ 0.924 µM) | 0.75 (≈ 0.462 µM) | CCCC[C@@H]1NC(=O)[C@H](CCN)NC(=O)[C@H](CCN)NC(=O)[C@H](Cc2c[nH]c3ccccc23)NC(=O)[C@H](CCN)NC(=O)[C@H](CCN)NC(=O)[C@H](CCCCN)NC(=O)[C@H](CCN)NC(=O)[C@H]([C@@H](C)CC)NC(=O)[C@H](Cc2c[nH]c3ccccc23)NC(=O)[C@H]([C@@H](C)O)NC(=O)[C@@H]2CCCN2C(=O)[C@H]2CCCN2C(=O)[C@H](CCN)NC1=O [Example 9] (cyclo(TWI[Dab]K[Dab][Dab]W[Dab][Dab][Nle][Dab][dP]P)) | 0.7 | 50 |
| 0.05 (≈ 0.0311 µM) | 0.23 | 0.37 (≈ 0.23 µM) | 0.43 (≈ 0.267 µM) | 0.13 (≈ 0.0808 µM) | 0.18 (≈ 0.112 µM) | CCC[C@@H]1NC(=O)[C@H](CCN)NC(=O)[C@H](CCN)NC(=O)[C@H](Cc2c[nH]c3ccccc23)NC(=O)[C@H](CCN)NC(=O)[C@H](CCN)NC(=O)[C@H](CCCCN)NC(=O)[C@H](CCN)NC(=O)[C@H]([C@@H](C)CC)NC(=O)[C@H](Cc2c[nH]c3ccccc23)NC(=O)[C@H]([C@@H](C)O)NC(=O)[C@@H]2CCCN2C(=O)[C@H]2CCCN2C(=O)[C@H](CCN)NC1=O [Example 10] (cyclo(TWI[Dab]K[Dab][Dab]W[Dab][Dab][Nva][Dab][dP]P)) | 0 | 50 |
| 0.30 (≈ 0.182 µM) | >1 | 0.75 (≈ 0.455 µM) | >2 | 2.00 (≈ 1.21 µM) | 1.00 (≈ 0.606 µM) | CC[C@H](C)[C@@H]1NC(=O)[C@H](Cc2c[nH]c3ccccc23)NC(=O)[C@H]([C@@H](C)O)NC(=O)[C@@H]2CCCN2C(=O)[C@H]2CCCN2C(=O)[C@H](CCN)NC(=O)[C@H](C2CCCCC2)NC(=O)[C@H](CCN)NC(=O)[C@H](CCN)NC(=O)[C@H](Cc2c[nH]c3ccccc23)NC(=O)[C@H](CCN)NC(=O)[C@H](CCN)NC(=O)[C@H](CCCCN)NC(=O)[C@H](CCN)NC1=O [Example 11] (cyclo(TWI[Dab]K[Dab][Dab]W[Dab][Dab][Chg][Dab][dP]P)) | 0.5 | 50 |
